Assay results as given in BindingDB's records for patent US20240002393 (Hoffmann-La Roche, 2024).

Legend:
[1] = target: T1, Gamma-aminobutyric acid receptor subunit alpha-1/beta-3/gamma-2 (Homo sapiens, UniProt P14867+P18507+P28472)
T1 sequence (P14867 whole entry): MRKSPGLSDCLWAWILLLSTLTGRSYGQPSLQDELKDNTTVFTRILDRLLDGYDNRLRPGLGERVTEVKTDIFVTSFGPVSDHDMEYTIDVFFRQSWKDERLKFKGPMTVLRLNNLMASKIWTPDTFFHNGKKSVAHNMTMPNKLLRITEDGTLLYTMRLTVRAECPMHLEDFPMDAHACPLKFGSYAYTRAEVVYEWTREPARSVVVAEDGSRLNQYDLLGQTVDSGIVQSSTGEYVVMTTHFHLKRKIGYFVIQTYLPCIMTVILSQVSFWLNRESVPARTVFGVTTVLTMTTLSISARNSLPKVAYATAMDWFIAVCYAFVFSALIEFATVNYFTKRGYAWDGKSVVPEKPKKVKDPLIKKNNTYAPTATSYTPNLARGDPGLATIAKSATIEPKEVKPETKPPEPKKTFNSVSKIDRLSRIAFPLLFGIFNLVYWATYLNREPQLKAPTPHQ
T1 sequence (P18507 whole entry): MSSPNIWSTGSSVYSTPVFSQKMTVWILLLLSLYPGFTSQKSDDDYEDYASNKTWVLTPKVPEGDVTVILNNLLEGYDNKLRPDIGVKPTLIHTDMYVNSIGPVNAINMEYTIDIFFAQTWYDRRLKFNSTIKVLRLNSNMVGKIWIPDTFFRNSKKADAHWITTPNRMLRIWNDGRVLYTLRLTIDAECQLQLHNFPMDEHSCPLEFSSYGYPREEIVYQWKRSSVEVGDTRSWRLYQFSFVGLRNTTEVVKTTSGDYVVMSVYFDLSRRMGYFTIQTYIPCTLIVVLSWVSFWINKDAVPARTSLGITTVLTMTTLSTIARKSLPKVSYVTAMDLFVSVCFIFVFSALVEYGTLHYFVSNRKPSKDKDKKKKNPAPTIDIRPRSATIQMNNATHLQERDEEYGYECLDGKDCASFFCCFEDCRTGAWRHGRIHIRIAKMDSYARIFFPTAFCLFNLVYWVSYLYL
T1 sequence (P28472 whole entry): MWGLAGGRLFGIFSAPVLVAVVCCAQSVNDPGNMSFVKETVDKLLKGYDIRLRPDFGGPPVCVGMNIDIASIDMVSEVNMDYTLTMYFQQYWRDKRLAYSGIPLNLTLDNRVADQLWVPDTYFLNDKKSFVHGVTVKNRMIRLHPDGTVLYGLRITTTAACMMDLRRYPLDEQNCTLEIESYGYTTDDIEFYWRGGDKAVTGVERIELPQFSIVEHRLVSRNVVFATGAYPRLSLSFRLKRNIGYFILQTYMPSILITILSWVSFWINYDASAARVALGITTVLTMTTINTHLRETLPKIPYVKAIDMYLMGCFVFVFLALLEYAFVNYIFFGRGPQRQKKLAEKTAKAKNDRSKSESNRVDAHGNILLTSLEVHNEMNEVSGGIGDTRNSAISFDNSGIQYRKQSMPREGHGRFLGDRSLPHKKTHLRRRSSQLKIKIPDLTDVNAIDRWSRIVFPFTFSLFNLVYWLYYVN

[2] = target: T2, Gamma-aminobutyric acid receptor subunit alpha-2/beta-2/gamma-1 (Human, UniProt P47869+P47870+Q8N1C3); experiment: Electrophysiology Assay
T2 sequence (Q8N1C3 whole entry): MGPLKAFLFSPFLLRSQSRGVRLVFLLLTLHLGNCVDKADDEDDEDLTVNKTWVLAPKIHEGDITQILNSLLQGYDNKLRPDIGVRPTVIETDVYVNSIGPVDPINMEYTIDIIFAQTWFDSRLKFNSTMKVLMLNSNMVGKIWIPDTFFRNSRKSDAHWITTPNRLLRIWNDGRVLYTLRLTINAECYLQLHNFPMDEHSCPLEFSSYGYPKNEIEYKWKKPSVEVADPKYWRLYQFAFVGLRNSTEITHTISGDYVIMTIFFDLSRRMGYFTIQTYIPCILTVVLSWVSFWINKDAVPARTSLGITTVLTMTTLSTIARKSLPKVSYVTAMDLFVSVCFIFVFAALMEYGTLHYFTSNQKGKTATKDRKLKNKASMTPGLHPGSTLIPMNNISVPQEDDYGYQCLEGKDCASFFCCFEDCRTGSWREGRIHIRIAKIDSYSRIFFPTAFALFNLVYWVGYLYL
T2 sequence (P47869 whole entry): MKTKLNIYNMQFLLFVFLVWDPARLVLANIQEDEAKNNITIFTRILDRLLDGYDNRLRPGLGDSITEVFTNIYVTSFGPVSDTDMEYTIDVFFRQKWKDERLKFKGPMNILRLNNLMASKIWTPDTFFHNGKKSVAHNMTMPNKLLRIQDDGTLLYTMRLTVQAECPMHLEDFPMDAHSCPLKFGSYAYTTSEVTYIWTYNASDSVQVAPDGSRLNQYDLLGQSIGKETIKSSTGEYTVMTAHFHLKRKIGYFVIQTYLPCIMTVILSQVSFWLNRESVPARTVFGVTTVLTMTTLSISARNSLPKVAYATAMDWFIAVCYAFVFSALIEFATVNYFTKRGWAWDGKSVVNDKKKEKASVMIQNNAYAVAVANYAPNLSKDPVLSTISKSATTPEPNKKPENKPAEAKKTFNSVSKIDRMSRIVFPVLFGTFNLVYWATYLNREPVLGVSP
T2 sequence (P47870 whole entry): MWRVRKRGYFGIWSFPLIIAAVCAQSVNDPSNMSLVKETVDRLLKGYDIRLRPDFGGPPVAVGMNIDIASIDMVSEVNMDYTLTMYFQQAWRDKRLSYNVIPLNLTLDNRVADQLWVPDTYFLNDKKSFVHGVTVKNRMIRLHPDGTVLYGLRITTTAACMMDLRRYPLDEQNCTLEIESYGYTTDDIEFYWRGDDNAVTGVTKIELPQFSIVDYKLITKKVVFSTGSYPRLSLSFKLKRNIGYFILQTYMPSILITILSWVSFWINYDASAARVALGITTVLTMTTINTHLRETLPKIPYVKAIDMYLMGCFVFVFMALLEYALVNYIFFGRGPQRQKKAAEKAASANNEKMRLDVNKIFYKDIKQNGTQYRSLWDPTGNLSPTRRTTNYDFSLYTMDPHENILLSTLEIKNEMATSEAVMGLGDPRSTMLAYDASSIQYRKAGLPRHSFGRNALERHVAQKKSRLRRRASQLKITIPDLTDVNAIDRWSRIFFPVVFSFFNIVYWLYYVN
Experimental: Table 2: Electrophysiological experiments were performed using the Roboocyte instrument (MultiChannelSystems, Reutlingen, Germany) on days 3 to 5 after the micro-injection of mRNA. During the experiment the oocytes were constantly superfused by a solution containing (in mM) NaCl 90, KCl 1, HEPES 5, MgCl2 1 CaCl2 1 (pH 7.4). Oocytes were impaled by two glass microelectrodes (resistance: 0.5-0.8 MΩ) which were filled with a solution containing KCl 1M+K-acetate 1.5 M and voltage-clamped to −80 mV. The recordings were performed at room temperature using the Roboocyte two-electrode voltage clamp system (Multichannelsystem). After an initial equilibration period of 1.5 min GABA was added for 1.5 min at a concentration evoking approximately 20% of a maximal current response (EC20). After another rest interval of 2.5 min GABA was again added evoking a response of similar amplitude and shape. […] Current traces were recorded at a digitization rate of 10 Hz during and shortly before and after the GABA application.

Work on `CCc1nnc2n1-c1ccc(C(F)(F)F)c(Cl)c1C(c1c(F)cccc1F)=N[C@H]2C` [US20240002393, Example 108] yielded a Ki [1] of 2.37 µM and a Ki [2] of 0.047 µM.
